Values of other authors in PMC6024518 (International Journal of Immunopathology and Pharmacology, 2018).

Tested on: SYK, JAK1, JAK2, JAK3 and other kinases
Conditions: including JAK2

COc1cc(Nc2ncc(F)c(Nc3ccc4c(n3)NC(=O)C(C)(C)O4)n2)cc(OC)c1OC [R406]
number of kinases inhibited more potently than SYK: 24
